Counter-ions that a name gives are not always drawn. Like-named read-outs stand apart in the source and are kept apart here.

In experiment [1] the test system is L6-myotubes. The experiment in a line: Glucose uptake in differentiated L6-myotubes (3H-2-deoxy-glucose). The note with it: read-out: Biological example 1: glucose uptake, % increase over the basal level. In kind it is cell-based. Here is the method:
(§1) L6-myoblasts were grown in Dulbecco's Modified Eagle's Medium (DMEM) containing 4,5 g/I glucose supplemented with 10% fetal bovine serum, 2 mM L-Glutamine, 50 U/ml penicillin, 50 μg/ml streptomycin and 10 mM HEPES. Cells were plated at 1×10^5 cells per ml in 24-well plates. After reaching 90% confluence the cells were grown in medium containing 2% FBS for 7 days where upon cells differentited into myotubes.
Differentiated L6-myotubes were serum-starved over night in medium containing 0.5% fatty-acid free BSA and stimulated with agonist, […], glucose free medium or PBS and another portion of agonist was added to glucose free medium. […] Cell lysate was mixed with scintillation buffer (Emulsifier Safe, Perkin Elmer and radioactivity detected in a β-counter (Tri-Carb 2800TR, Perkin Elmer). The numerical values in the table are given as % increase over the basal level.

A further experiment has as its target T1, human β2-adrenoceptor (Homo sapiens, UniProt P07550).
T1 construct: expressed in transfected cells
The experiment in a line: 3H-CGP 12177 whole cell β2 binding. Here is the method:
^3H-CGP 12177 Whole Cell β2 Binding
Chinese Hamster Ovary (CHO) cells stably expressing the human β2-adrenoceptor were grown in Dulbecco's modified Eagle's medium nutrient mix F12 (DMEM/F12) containing 10% fetal calf serum and 2 mM L-glutamine in a 37° C. humidified 5% CO2:95% air atmosphere. The cells were seeded (100 000 cells/mL) into white-sided, clear-bottomed 96-well isoplates and allowed to grow to confluence for the following day's experiment. Next day, the media was removed from each well of the isoplate. Aliquots of the test compounds (10^−2 M in DMSO) were diluted in DMEM/F12 containing 2 mM L-glutamine (serum-free media) to final concentration ranges of 10^−4 M to 10^−10 M and added to each well. The radioligand ^3H-CGP 12177 was diluted in the same medium (˜1 nM final well concentration) and added to each well. Propranolol and CGP 12177 (10 μM) were used to measure non-specific binding. The cells were incubated for 2 hours at 37° C. After incubation, the cells were washed twice by the addition and removal of 200 μL ice-cold phosphate-buffered saline (PBS). Cells were then lysed with Optiphase Supermix cocktail (100 μL/well) and a clear sealant top was applied to the plate. The plate was left overnight in the dark at room temperature, centrifuged (1000 rpm, 1 min) and measured in a MicroBeta2 Microplate Counter (Perkin Elmer) (10 minutes pre-incubation, 2 min counts/well).
All data points on each binding curve were measured in duplicates. Each 96-well plate also contained four determinations of total and non-specific binding. Non-specific binding was determined in the presence of CGP 12177 and propranolol (10 μM). […] All data points are measured in counts per minute (CPM) and converted into disintegrations per minute (DPM) by dividing the count rate (CPM) with the counting efficiency of the instruments detector (57%). The numerical values were obtained by using the GraphPad Prism 7 programme and are given as -log K (pKi) in the table.

The test system of experiment [2] is L6-myotubes. In words: Measurement of intracellular cAMP levels (alpha screen cAMP kit). It is filed as cell-based. The following applies: agonist final concentration 1×10^−5, 15 min; differentiated cells; 1 mM IBMX. The protocol: as §1
Differentiated cells were serum-starved over night and stimulated with agonist, final concentration 1×10−^5, for 15 min in stimulation buffer (HBSS supplemented with 1% BSA, 5 mM HEPES and 1 mM IBMX, pH 7,4) The medium was then aspirated and to end the reaction 100 μL of 95% EtOH was added to each well of a 24-well plate and cells were kept in −20° C. over night. The EtOH was let to evaporate and 500 μL of lysis buffer (1% BSA, 5 mM HEPES and 0,3% Tween-20, pH 7.4) was added to each well before put in −80° C. for 30 min and then kept in −20° C. Intracellular cAMP levels were detected using an alpha screen cAMP kit (6760635D from Perkin Elmer). The numerical values in the table are given as % increase over the basal level.

Where [3] appears, read: agonist final concentration 1×10^−5, differentiated L6-myotubes, 50 nM 3H-2-deoxy-glucose.
[4] abbreviates: CHO cells stably expressing the human β2-adrenoceptor, ~1 nM 3H-CGP 12177, 2 hours at 37° C., read-out: Biological example 3: -log K (pKi), 3H-CGP 12177 whole cell β2 binding (converted).

T1 sequence (P07550 whole entry): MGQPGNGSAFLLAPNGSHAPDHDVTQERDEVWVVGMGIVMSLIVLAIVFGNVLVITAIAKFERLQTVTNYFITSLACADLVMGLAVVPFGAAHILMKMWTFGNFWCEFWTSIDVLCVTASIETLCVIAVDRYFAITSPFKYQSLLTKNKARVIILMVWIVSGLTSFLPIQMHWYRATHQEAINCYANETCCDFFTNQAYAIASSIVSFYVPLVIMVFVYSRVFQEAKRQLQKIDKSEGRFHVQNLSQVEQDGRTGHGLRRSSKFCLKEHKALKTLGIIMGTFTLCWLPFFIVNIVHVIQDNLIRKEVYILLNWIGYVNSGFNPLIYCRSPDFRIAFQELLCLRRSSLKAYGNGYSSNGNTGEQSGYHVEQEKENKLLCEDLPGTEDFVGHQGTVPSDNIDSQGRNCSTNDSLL

In the case of `CCCC(C)NCC(O)c1cc(Cl)c(N)c(C(F)(F)F)c1` (mixture of isomers) [Example 31, 1-(4-amino-3-chloro-5-(trifluoromethyl)phenyl)-2-(pentan-2-ylamino)ethan-1-ol], the activation in the experiment with L6-myotubes [1] (setting [3]) turned out to be 36%. The compound also gave a Ki at human β2-adrenoceptor of 0.0316 µM. In addition, the “Biological example 2: intracellular cAMP levels, % increase over the basal level” value with L6-myotubes [2] is recorded as 439%.
With `CCCCNCC(O)c1cc(O)cc(O)c1` (stereo not shown) [Example 25, 5-(2-(Butylamino)-1-hydroxyethyl)benzene-1,3-diol hemisulphate], the activation in the experiment on L6-myotubes [1] (setting [3]) stood at 32%. Further, on human β2-adrenoceptor (setting [4]), the Ki is 39.8 µM. Also, the “Biological example 2: intracellular cAMP levels, % increase over the basal level” value with L6-myotubes [2] came out at 115%.
In the case of `CCCCNCC(O)c1cccc(O)c1` (stereo not shown) [Example 14, 3-(2-(Butylamino)-1-hydroxyethyl)phenol], the activation in the experiment on L6-myotubes [1] (setting [3]) amounted to 17%. Besides, the Ki on human β2-adrenoceptor (setting [4]) was 15.8 µM. Also, in the experiment with L6-myotubes [2], the “Biological example 2: intracellular cAMP levels, % increase over the basal level” value is 20%.
On to `Oc1ccc(C(O)CNCCCC2CC2)cc1` (stereo not shown) [Example 23, 4-(2-((3-Cyclopropylpropyl)amino)-1-hydroxyethyl)phenol acetate], for which, in the experiment on L6-myotubes [1] (setting [3]), the activation turned out to be 28%. For the same compound, the Ki on human β2-adrenoceptor (setting [4]) was 7.94 µM.
As to `CCCCNCC(O)c1cc(Cl)c(N)c(C(F)(F)F)c1` (stereo not shown) [Example 30, 1-(4-Amino-3-chloro-5-(trifluoromethyl)phenyl)-2-(butylamino)ethan-1-ol], the activation in the experiment on L6-myotubes [1] (setting [3]) worked out at 50%. Further, the Ki at human β2-adrenoceptor is 0.0794 µM. For the same compound, the “Biological example 2: intracellular cAMP levels, % increase over the basal level” value in the experiment with L6-myotubes [2] was 231%.
`CCCC(C)NCC(O)c1cc(Cl)c(O)c(Cl)c1` (mixture of isomers) [Example 27, 2,6-Dichloro-4-(1-hydroxy-2-(pentan-2-ylamino)ethyl)phenol]: the activation with L6-myotubes [1] (setting [3]) was 6%. On human β2-adrenoceptor (setting [4]), the Ki is 1.26 µM. Besides, in the experiment on L6-myotubes [2], the “Biological example 2: intracellular cAMP levels, % increase over the basal level” value came out at 86%.
For `CCCCNCC(O)c1ccc(Cl)c(N)c1` (stereo not shown) [Example 34, 1-(3-Amino-4-chlorophenyl)-2-(butylamino)ethan-1-ol] the same measures were 20%, 3.16 µM and 0%.
For the compound `OC(CNCC1CCCCC1)c1ccccc1` (stereo not shown) [Example 10, 2-((cyclohexylmethyl)amino)-1-phenylethan-1-ol], the activation in the experiment with L6-myotubes [1] (setting [3]) was 39%. The Ki at human β2-adrenoceptor (setting [4]) was 25.1 µM. Further, the “Biological example 2: intracellular cAMP levels, % increase over the basal level” value in the experiment on L6-myotubes [2] was 5%.
Regarding `Oc1ccc(C(O)CNCCC2CC2)cc1` (stereo not shown) [Example 22, 4-(2-((2-Cyclopropylethyl)amino)-1-hydroxyethyl)phenol], the activation in the experiment on L6-myotubes [1] (setting [3]) came to 30%. In addition, the Ki at human β2-adrenoceptor (setting [4]) was 12.6 µM. In addition, in the experiment with L6-myotubes [2], the “Biological example 2: intracellular cAMP levels, % increase over the basal level” value is on record as 20%.
As to `CCCCCCNCC(O)c1ccc(O)cc1` (stereo not shown) [Example 17, 4-(2-(Hexylamino)-1-hydroxyethyl)phenol acetate], the activation with L6-myotubes [1] (setting [3]) stood at 26%. Further, on human β2-adrenoceptor (setting [4]), the Ki was 6.31 µM. The “Biological example 2: intracellular cAMP levels, % increase over the basal level” value in the experiment with L6-myotubes [2] is recorded as 70%.
On to `Oc1ccc(C(O)CNCCCC2CCCCC2)cc1` (stereo not shown) [Example 21, 4-(2-((3-Cyclohexylpropyl)amino)-1-hydroxyethyl)phenol], for which the activation in the experiment on L6-myotubes [1] (setting [3]) was determined as 37%. For the same compound, the Ki on human β2-adrenoceptor (setting [4]) was 2 µM. Also, the “Biological example 2: intracellular cAMP levels, % increase over the basal level” value with L6-myotubes [2] is recorded as −16%.
For `CCCC(C)NCC(O)c1ccc(O)c(Cl)c1` (mixture of isomers) [Example 19, 2-Chloro-4-(1-hydroxy-2-(pentan-2-ylamino)ethyl)phenol], the activation with L6-myotubes [1] (setting [3]) came out at 30%. Besides, the Ki on human β2-adrenoceptor (setting [4]) was 0.501 µM. For the same compound, in the experiment on L6-myotubes [2], the “Biological example 2: intracellular cAMP levels, % increase over the basal level” value is −52%.
As for `Oc1ccc(C(O)CNCCC2CCCCC2)cc1` (stereo not shown) [Example 16, 4-(2-((2-Cyclohexylethyl)amino)-1-hydroxyethyl)phenol acetate], in the experiment with L6-myotubes [1] (setting [3]), the activation is 23%. The Ki at human β2-adrenoceptor (setting [4]) is 5.01 µM. Besides, the “Biological example 2: intracellular cAMP levels, % increase over the basal level” value in the experiment on L6-myotubes [2] was −56%.
As for `CCCC(C)NCC(O)c1ccc(Cl)c(O)c1` (mixture of isomers) [Example 33, 2-Chloro-5-(1-hydroxy-2-(pentan-2-ylamino)ethyl)phenol], the activation in the experiment with L6-myotubes [1] (setting [3]) is 55%. Further, the Ki at human β2-adrenoceptor (setting [4]) was 1 µM. For the same compound, in the experiment on L6-myotubes [2], the “Biological example 2: intracellular cAMP levels, % increase over the basal level” value is 1191%.
Regarding `CC(C)(C)NCC(O)c1ccc(O)cc1` (stereo not shown) [Example 4, 4-(2-(tert-Butylamino)-1-hydroxyethyl)phenol], the activation in the experiment with L6-myotubes [1] was 62%. At human β2-adrenoceptor (setting [4]), the Ki is 1 µM. Besides, the “Biological example 2: intracellular cAMP levels, % increase over the basal level” value with L6-myotubes [2] was 40%.
In the case of `Oc1ccc(C(O)CNCCCC(F)(F)F)cc1` (stereo not shown) [Example 24, 4-(1-Hydroxy-2-((4,4,4-trifluorobutyl)amino)ethyl)phenol acetate], the activation in the experiment with L6-myotubes [1] (setting [3]) is 22%. Further, the Ki at human β2-adrenoceptor (setting [4]) was 10 µM.
For `CCCCNC[C@H](O)c1ccc(O)cc1` [Example 11, (R)-4-(2-(Butylamino)-1-hydroxyethyl)phenol hemisulfate], the activation in the experiment with L6-myotubes [1] (setting [3]) was found to be 50%. Moreover, on human β2-adrenoceptor (setting [4]), the Ki was 39.8 µM. The “Biological example 2: intracellular cAMP levels, % increase over the basal level” value in the experiment with L6-myotubes [2] worked out at 10%.
For `CCCCNCC(O)c1ccc(O)c(Cl)c1` (stereo not shown) [Example 20, 4-(2-(Butylamino)-1-hydroxyethyl)-2-chlorophenol] the same measures were 12%, 3.16 µM and −19%.
On to `Oc1ccc(C(O)CNCC2CC2)cc1` (stereo not shown) [Example 3, 4-(2-((Cyclopropylmethyl)amino)-1-hydroxyethyl)phenol], for which the activation in the experiment with L6-myotubes [1] (setting [3]) is 86%. Further, the Ki on human β2-adrenoceptor (setting [4]) was 25.1 µM. The “Biological example 2: intracellular cAMP levels, % increase over the basal level” value in the experiment on L6-myotubes [2] came out at 18%.
In the case of `CCCCNCC(O)c1cccc(Cl)c1` (stereo not shown) [Example 2, 2-(Butylamino)-1-(3-chlorophenyl)ethan-1-ol], in the experiment on L6-myotubes [1] (setting [3]), the activation was 27%. The Ki at human β2-adrenoceptor (setting [4]) is 6.31 µM. In the experiment on L6-myotubes [2], the “Biological example 2: intracellular cAMP levels, % increase over the basal level” value turned out to be 3%.
With `CCCCNCC(O)c1ccc(O)cc1` (stereo not shown) [Example 1, 4-(2-(Butylamino)-1-hydroxyethyl)phenol], in the experiment with L6-myotubes [1] (setting [3]), the activation was 50%. The Ki at human β2-adrenoceptor (setting [4]) is 25.1 µM. For the same compound, the “Biological example 2: intracellular cAMP levels, % increase over the basal level” value in the experiment with L6-myotubes [2] was found to be 1%.
`CCCCNCC(O)c1ccc(Cl)c(O)c1` (stereo not shown) [Example 32, 5-(2-(Butylamino)-1-hydroxyethyl)-2-chlorophenol]: the activation in the experiment on L6-myotubes [1] (setting [3]) was 53%. The Ki at human β2-adrenoceptor (setting [4]) is 6.31 µM. Besides, the “Biological example 2: intracellular cAMP levels, % increase over the basal level” value in the experiment with L6-myotubes [2] came to 371%.
On to `CCCCNCC(O)c1cc(F)c(N)c(F)c1` (stereo not shown) [Example 35, 1-(4-Amino-3,5-difluorophenyl)-2-(butylamino)ethan-1-ol], for which, in the experiment on L6-myotubes [1] (setting [3]), the activation was determined as 65%. Further, the Ki at human β2-adrenoceptor (setting [4]) was 3.98 µM. In addition, the “Biological example 2: intracellular cAMP levels, % increase over the basal level” value in the experiment with L6-myotubes [2] is listed as 6536%.
Consider `CCC(C)NCC(O)c1ccc(O)cc1` (stereo not shown) [Example 5, 4-(2-(sec-Butylamino)-1-hydroxyethyl)phenol], for which the activation in the experiment with L6-myotubes [1] (setting [3]) was found to be 39%. For the same compound, the Ki at human β2-adrenoceptor (setting [4]) is 5.01 µM. Besides, in the experiment on L6-myotubes [2], the “Biological example 2: intracellular cAMP levels, % increase over the basal level” value was 18%.
As for `CCCCNCC(O)c1cc(Cl)c(N)c(Cl)c1` (stereo not shown) [Example 29, 1-(4-Amino-3,5-dichlorophenyl)-2-(butylamino)ethan-1-ol trifluoroacetate], in the experiment on L6-myotubes [1], the activation is 48%. Besides, the Ki on human β2-adrenoceptor was 0.316 µM. The “Biological example 2: intracellular cAMP levels, % increase over the basal level” value in the experiment with L6-myotubes [2] was found to be 222%.

The record behind these values is patent US20190119196A1, “COMPOUNDS FOR THE TREATMENT OF […]” (priority 2016, published 2019).
